Test system: not listed separately
Assay: Microsomal stability assay, human hepatic microsomes
Type: in vitro ADME
Conditions: 1 mg/ml human hepatic microsomes, 37° C., half-life by LC-MS/MS
Method: The metabolic stability of some test compounds was determined in hepatic human and mouse microsomes. The compound was incubated with 1 mg/ml human or mouse hepatic microsomes at 37° C. with continuous shaking. Aliquots were removed at various time points between 5 minutes and 2 hours and acetonitrile was added to quench the reactions and precipitate the proteins. Samples were then centrifuged through 0.45 μm filter plates and half-lives were determined by LC-MS/MS.

Structure (SMILES) | Stability in human microsomes ≥15 minutes
CCOc1ccc(-c2ccn3ccc(C(=O)NCCCn4ccnc4C)c3n2)cc1 [SR-35784] | Yes

Test system: PK1 neuroblastoma cells exposed to TPrP
Assay: cells
Conditions: Neuroblastoma cell, 96 h, read-out: TPrP EC50

Structure (SMILES) | EC50
O=C(NCCCn1ccnc1)c1cnn2c(C(F)(F)F)cc(-c3ccccc3)nc12 [SR-229] | 2 nM
Cc1nccn1CCCNC(=O)c1cnn2c(=O)cc(-c3ccc4c(c3)OCO4)[nH]c12 [SR-31105] | 800 nM
CCOc1ccc(-c2cc(=O)n3ncc(C(=O)NCCCn4ccnc4C)c3[nH]2)cc1 [SR-32684] | 900 nM
CCOc1ccc(-c2cc(=S)n3ncc(C(=O)NCCCn4ccnc4C)c3[nH]2)cc1 [SR-32685] | 40 nM
CCOc1ccc(-c2cc(=O)n3ncc(C(=O)NCCCn4ccnc4C)c3n2C)cc1 [SR-32686] | > 2700 nM
CCOc1ccc(-c2cc(N3CC[C@@H](NC(C)=O)C3)n3ncc(C(=O)NCCCn4ccnc4C)c3n2)cc1 [SR-32687] | < 5 nM
CCOc1ccc(-c2cc(N3CC[C@H](NC(C)=O)C3)n3ncc(C(=O)NCCCn4ccnc4C)c3n2)cc1 [SR-32688] | < 5 nM
CCOc1ccc(-c2cc(Cl)n3ncc(C(=O)NCCCn4ccnc4C)c3n2)cc1 [SR-32689] | 20 nM
Cc1cc(-c2ccc3c(c2)OCO3)nc2c(C(=O)NCCCn3ccnc3C)csc12 [SR-33781] | < 5 nM
CCSc1ccc(-c2cc(=S)n3ncc(C(=O)NCCCn4ccnc4C)c3[nH]2)cc1 [SR-34831] | 20 nM
CCOc1ccc(-c2cc(=S)c3scc(C(=O)NCCCn4ccnc4C)c3[nH]2)cc1 [SR-34953] | 6 nM
CCOc1ccc(-c2cc(=O)c3cccc(C(=O)NCCCn4ccnc4C)c3o2)cc1 [SR-35434] | 18 nM
CCOc1ccc(-c2cc(=S)c3cccc(C(=O)NCCCn4ccnc4C)c3o2)cc1 [SR-35435] | 54 nM

Test system: not listed separately
Assay: in vitro
Conditions: mouse, tox (toxicity noted in TPrP EC50 column)

Structure (SMILES) | EC50
CCOc1ccc(-c2cc(Cl)n3ncc(C(=O)NCCCn4ccnc4C)c3n2)cc1 [SR-32689] | > 900 nM
